The record followed here is patent US8530489B2 (Vertex Pharmaceuticals Incorporated, priority 2006, dated 2013).

Structures are written as SMILES. Some results are limits rather than exact numbers.

Sequence of PLK1 (P53350 whole entry): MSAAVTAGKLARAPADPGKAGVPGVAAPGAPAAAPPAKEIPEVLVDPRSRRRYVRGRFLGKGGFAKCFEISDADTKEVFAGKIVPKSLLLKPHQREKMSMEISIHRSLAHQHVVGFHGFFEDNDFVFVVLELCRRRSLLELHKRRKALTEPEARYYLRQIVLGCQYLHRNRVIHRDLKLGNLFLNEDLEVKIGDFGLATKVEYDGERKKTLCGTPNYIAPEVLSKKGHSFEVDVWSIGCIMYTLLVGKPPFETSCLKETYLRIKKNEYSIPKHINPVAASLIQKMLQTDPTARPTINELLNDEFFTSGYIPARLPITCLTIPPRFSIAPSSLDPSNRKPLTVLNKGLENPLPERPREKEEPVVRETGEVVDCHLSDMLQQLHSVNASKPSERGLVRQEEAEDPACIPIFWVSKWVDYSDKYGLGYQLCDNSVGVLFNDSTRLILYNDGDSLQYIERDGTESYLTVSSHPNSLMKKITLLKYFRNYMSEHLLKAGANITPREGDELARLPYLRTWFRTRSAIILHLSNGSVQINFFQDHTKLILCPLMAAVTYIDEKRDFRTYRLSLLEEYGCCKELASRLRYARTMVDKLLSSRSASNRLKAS

This assay deals with PLK1 (Homo sapiens, UniProt P53350). Put plainly: PLK1 Inhibition Assay I (radioactive-phosphate incorporation). Particulars: Ki(app); PLK1 Inhibition Assay I or II (table does not say which). The class given is biochemical. The gist of the method:
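Ki(app) values came from non-linear regression of initial rates after background subtraction, with phosphopeptide measured by phosphocellulose filter binding and scintillation counting. PLK1 at 2 nM was preincubated with compound (typically from 10 μM, 2-fold dilutions) for 10 min, then run 240 min at 25° C with 350 μM [γ-33P]ATP and 450 μM peptide substrate in HEPES pH 7.5 buffer.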
On to `C[C@@H](O)C(=O)N[C@H]1CC[C@H]([C@@H](C)Nc2ncc(C#N)c(-c3c[nH]c4ncc(C(F)(F)F)cc34)n2)CC1` [Compound I-265, Trans-(2R)—N-(4-((1R)-1-(5-cyano-4-(5-(trifluoromethyl)-1H-pyrrolo[2,3-b]pyridin-3-yl)pyrimidin-2-ylamino)ethyl)cyclohexyl)-2-hydroxypropanamide], for which the Ki is < 3 nM.

For the molecule `C[C@H](CN1CCOCC1)Nc1ncc(C#N)c(-c2c[nH]c3ncc(C(F)(F)F)cc23)n1` [Compound I-132, 2-((R)-1-morpholinopropan-2-ylamino)-4-(5-(trifluoromethyl)-1H-pyrrolo[2,3-b]pyridin-3-yl)pyrimidine-5-carbonitrile], the Ki was 3 to 40 nM.

Consider `COc1cccc(CNc2ncc(C#N)c(-c3c[nH]c4ncc(C(F)(F)F)cc34)n2)c1` [Compound I-20, 2-(3-methoxybenzylamino)-4-(5-(trifluoromethyl)-1H-pyrrolo[2,3-b]pyridin-3-yl)pyrimidine-5-carbonitrile], for which the Ki is > 40 nM.

On to `N#Cc1cnc(NCc2ccccc2F)nc1-c1c[nH]c2ncc(C(F)(F)F)cc12` [Compound I-21, 2-(2-fluorobenzylamino)-4-(5-(trifluoromethyl)-1H-pyrrolo[2,3-b]pyridin-3-yl)pyrimidine-5-carbonitrile], for which the Ki was > 40 nM.

Consider `CC[C@@H](N)C(=O)N1CCC([C@@H](C)Nc2ncc(C#N)c(-c3c[nH]c4ncc(C(F)(F)F)cc34)n2)CC1` [Compound I-226, 2-((R)-1-(1-((R)-2-aminobutanoyl)piperidin-4-yl)ethylamino)-4-(5-(trifluoromethyl)-1H-pyrrolo[2,3-b]pyridin-3-yl)pyrimidine-5-carbonitrile], for which the Ki is < 3 nM.

On to `N#Cc1cnc(NC(CO)c2ccccc2)nc1-c1c[nH]c2ncc(C(F)(F)F)cc12` (stereo not shown) [Compound I-75, 2-(2-hydroxy-1-phenylethylamino)-4-(5-(trifluoromethyl)-1H-pyrrolo[2,3-b]pyridin-3-yl)pyrimidine-5-carbonitrile], for which the Ki was 3 to 40 nM.

`COc1ccc(Sc2ncc(C#N)c(-c3c[nH]c4ncc(C(F)(F)F)cc34)n2)cc1` [II-3, 2-(4-methoxyphenylthio)-4-(5-(trifluoromethyl)-1H-pyrrolo[2,3-b]pyridin-3-yl)pyrimidine-5-carbonitrile]: the Ki was > 40 nM.

`N#Cc1cnc(Sc2ccccc2Cl)nc1-c1c[nH]c2ncc(C(F)(F)F)cc12` [II-5, 2-(2-chlorophenylthio)-4-(5-(trifluoromethyl)-1H-pyrrolo[2,3-b]pyridin-3-yl)pyrimidine-5-carbonitrile]: the Ki is > 40 nM.

As to `CCCNc1ncc(C#N)c(-c2c[nH]c3ncc(C(F)(F)F)cc23)n1` [Compound I-93, 2-(propylamino)-4-(5-(trifluoromethyl)-1H-pyrrolo[2,3-b]pyridin-3-yl)pyrimidine-5-carbonitrile], the Ki was 3 to 40 nM.

With `CCC(=O)Nc1ccc([C@@H](C)Nc2ncc(C#N)c(-c3c[nH]c4ncc(C(F)(F)F)cc34)n2)cc1` [Compound I-144, N-(4-((1R)-1-(5-cyano-4-(5-(trifluoromethyl)-1H-pyrrolo[2,3-b]pyridin-3-yl)pyrimidin-2-ylamino)ethyl)phenyl)propionamide], the Ki is < 3 nM.

In the case of `COc1ccc([C@@H](C)Nc2ncc(C#N)c(-c3c[nH]c4ncc(C(F)(F)F)cc34)n2)cc1` [Compound I-26, 2-((R)-1-(4-methoxyphenyl)ethylamino)-4-(5-(trifluoromethyl)-1H-pyrrolo[2,3-b]pyridin-3-yl)pyrimidine-5-carbonitrile], the Ki is < 3 nM.

As to `COC(=O)N1CCC(C(C)Nc2ncc(C#N)c(-c3c[nH]c4ncc(C(F)(F)F)cc34)n2)CC1` (stereo not shown) [Compound I-152, methyl 4-(1-(5-cyano-4-(5-(trifluoromethyl)-1H-pyrrolo[2,3-b]pyridin-3-yl)pyrimidin-2-ylamino)ethyl)piperidine-1-carboxylate], the Ki is < 3 nM.

Consider `C[C@@H](Nc1ncc(C#N)c(-c2c[nH]c3ncc(C(F)(F)F)cc23)n1)c1ccc(Br)cc1` [Compound I-33, 2-((R)-1-(4-bromophenyl)ethylamino)-4-(5-(trifluoromethyl)-1H-pyrrolo[2,3-b]pyridin-3-yl)pyrimidine-5-carbonitrile], for which the Ki is > 40 nM.

For `CC(C)(Nc1ncc(C#N)c(-c2c[nH]c3ncc(Cl)cc23)n1)C(=O)NCCC(F)(F)F`, the Ki is > 40 nM.

Turning to `CCS(=O)(=O)N1CCC(C(C)Nc2ncc(C#N)c(-c3c[nH]c4ncc(C(F)(F)F)cc34)n2)CC1` (stereo not shown) [Compound I-153, 2-(1-(1-(ethylsulfonyl)piperidin-4-yl)ethylamino)-4-(5-(trifluoromethyl)-1H-pyrrolo[2,3-b]pyridin-3-yl)pyrimidine-5-carbonitrile], the Ki is < 3 nM.

As for `CCC(O)CNc1ncc(C#N)c(-c2c[nH]c3ncc(C(F)(F)F)cc23)n1` (stereo not shown) [Compound I-96, 2-(2-hydroxybutylamino)-4-(5-(trifluoromethyl)-1H-pyrrolo[2,3-b]pyridin-3-yl)pyrimidine-5-carbonitrile], the Ki is 3 to 40 nM.

For the molecule `CCNc1ncc(C#N)c(-c2c[nH]c3ncc(C(F)(F)F)cc23)n1` [Compound I-66, 2-(ethylamino)-4-(5-(trifluoromethyl)-1H-pyrrolo[2,3-b]pyridin-3-yl)pyrimidine-5-carbonitrile], the Ki is > 40 nM.

As to `COc1ncc([C@@H](C)Nc2ncc(C#N)c(-c3c[nH]c4ncc(C(F)(F)F)cc34)n2)cn1` [Compound I-303, 2-(I-1-(2-methoxypyrimidin-5-yl)ethylamino)-4-(5-(trifluoromethyl)-1H-pyrrolo[2,3-b]pyridin-3-yl)pyrimidine-5-carbonitrile], the Ki is < 3 nM.

Regarding `C[C@@H](Nc1ncc(C#N)c(-c2c[nH]c3ncc(C(F)(F)F)cc23)n1)[C@H]1CC[C@H](NS(C)(=O)=O)CC1` (single isomer, unassigned) [Compound I-202], the Ki is < 3 nM.

On to `CC(C)[C@H](CO)Nc1ncc(C#N)c(-c2c[nH]c3ncc(C(F)(F)F)cc23)n1` [Compound I-47, 2-((R)-1-hydroxy-3-methylbutan-2-ylamino)-4-(5-(trifluoromethyl)-1H-pyrrolo[2,3-b]pyridin-3-yl)pyrimidine-5-carbonitrile], for which the Ki is < 3 nM.

With `C[C@@H](Nc1ncc(C#N)c(-c2c[nH]c3ncc(C(F)(F)F)cc23)n1)c1ccc(NS(C)(=O)=O)cc1` [Compound I-136, N-(4-((1R)-1-(5-cyano-4-(5-(trifluoromethyl)-1H-pyrrolo[2,3-b]pyridin-3-yl)pyrimidin-2-ylamino)ethyl)phenyl)methanesulfonamide], the Ki is < 3 nM.

`CC[C@@H](C)[C@@H](CO)Nc1ncc(C#N)c(-c2c[nH]c3ncc(C(F)(F)F)cc23)n1` [Compound I-116, 2-((2S,3R)-1-hydroxy-3-methylpentan-2-ylamino)-4-(5-(trifluoromethyl)-1H-pyrrolo[2,3-b]pyridin-3-yl)pyrimidine-5-carbonitrile]: the Ki is 3 to 40 nM.

Regarding `C[C@@H](Nc1ncc(C#N)c(-c2c[nH]c3ncc(C(F)(F)F)cc23)n1)c1cnc(O)nc1` [Compound I-302, 2-(I-1-(2-hydroxypyrimidin-5-yl)ethylamino)-4-(5-(trifluoromethyl)-1H-pyrrolo[2,3-b]pyridin-3-yl)pyrimidine-5-carbonitrile], the Ki is < 3 nM.

Take `C[C@@H](Nc1ncc(C#N)c(-c2c[nH]c3ncc(C(F)(F)F)cc23)n1)C1CCN(C(=O)[C@H](N)c2ccccc2)CC1` [Compound I-248, 2-((R)-1-(1-((R)-2-amino-2-phenylacetyl)piperidin-4-yl)ethylamino)-4-(5-(trifluoromethyl)-1H-pyrrolo[2,3-b]pyridin-3-yl)pyrimidine-5-carbonitrile]: the Ki lay in the range of 3 to 40 nM.

For the molecule `N#Cc1cnc(NCc2ccccc2Cl)nc1-c1c[nH]c2ncc(C(F)(F)F)cc12` [Compound I-17, 2-(2-chlorobenzylamino)-4-(5-(trifluoromethyl)-1H-pyrrolo[2,3-b]pyridin-3-yl)pyrimidine-5-carbonitrile], the Ki is > 40 nM.

In the case of `N#Cc1cnc(NCC2CCOCC2)nc1-c1c[nH]c2ncc(C(F)(F)F)cc12` [Compound I-57, 2-((tetrahydro-2H-pyran-4-yl)methylamino)-4-(5-(trifluoromethyl)-1H-pyrrolo[2,3-b]pyridin-3-yl)pyrimidine-5-carbonitrile], the Ki lay in the range of 3 to 40 nM.

Consider `COCC(Nc1ncc(C#N)c(-c2c[nH]c3ncc(C(F)(F)F)cc23)n1)C(C)C` (stereo not shown) [Compound I-110, 2-(1-methoxy-3-methylbutan-2-ylamino)-4-(5-(trifluoromethyl)-1H-pyrrolo[2,3-b]pyridin-3-yl)pyrimidine-5-carbonitrile], for which the Ki was in the range of 3 to 40 nM.

Consider `C=C1CC(C(C)Nc2ncc(C#N)c(-c3c[nH]c4ncc(C(F)(F)F)cc34)n2)C1` (stereo not shown) [Compound I-214, 2-(1-(3-methylenecyclobutyl)ethylamino)-4-(5-(trifluoromethyl)-1H-pyrrolo[2,3-b]pyridin-3-yl)pyrimidine-5-carbonitrile], for which the Ki was in the range of 3 to 40 nM.

Consider `C#CCNc1ncc(C#N)c(-c2c[nH]c3ncc(C(F)(F)F)cc23)n1` [Compound I-79, 2-(prop-2-ynylamino)-4-(5-(trifluoromethyl)-1H-pyrrolo[2,3-b]pyridin-3-yl)pyrimidine-5-carbonitrile], for which the Ki was > 40 nM.

As to `CC(C)[C@@H](O)C(=O)N1CCC([C@@H](C)Nc2ncc(C#N)c(-c3c[nH]c4ncc(C(F)(F)F)cc34)n2)CC1` [Compound I-256, 2-((R)-1-(1-((R)-2-hydroxy-3-methylbutanoyl)piperidin-4-yl)ethylamino)-4-(5-(trifluoromethyl)-1H-pyrrolo[2,3-b]pyridin-3-yl)pyrimidine-5-carbonitrile], the Ki was < 3 nM.

Regarding `N#Cc1cnc(N2CCC[C@@H]2CN)nc1-c1c[nH]c2ncc(C(F)(F)F)cc12` [Compound I-87, 2-((R)-2-(aminomethyl)pyrrolidin-1-yl)-4-(5-(trifluoromethyl)-1H-pyrrolo[2,3-b]pyridin-3-yl)pyrimidine-5-carbonitrile], the Ki was > 40 nM.
